Patent publication US10207988B2, “Methods and compositions for treatment of cancer and autoimmune disease” (THE JACKSON LABORATORY, priority 2011, dated 2019)

Tests used:
[1] = system: AID-negative (AID−) primary human CLL cells; experiment: survival of primary human CLL cells cultured with DIDS (manual cytometry); type: cell-based; details: 30 micromolar DIDS, 2, 4 or 8 days, versus untreated
Description: AID-expressing (AID+) or AID-negative (AID−) primary human CLL cells were cultured as described in Example 4. Cells were cultured in basic RPMI-1640 medium without supplementation (untreated; triangle in FIG. 17) or with 30 micromolar DIDS. Open circles represent the data for AID-negative cells treated with 30 micromolar DIDS and filled boxes represent the data for AID-positive cells treated with 30 micromolar DIDS. The cell survival was scored by manual cytometry for viable cells after 2, 4, or 8 days of exposure.
(§1) Eight AID+ and eight AID− CLL samples were cultured in basic RPMI-1640 medium plus 30 micromolar DIDS, and survival was scored by manual cytometry for viable cells after 2, 4, 6, or 8 days. […] A total of 117 lymphoma or leukemia patients were studies, of which 106 were CLL patients. In 47% AID expression was determined by RT-PCR.

[2] = system: mouse B-lymphoid leukemia cell line CH12-F3; experiment: total cell counts of CH12-F3 cells cultured with DIDS; type: cell-based
Description: The mouse B-lymphoid leukemia cell line CH12-F3 was cultured in RPMI-1640 medium supplemented with 2-10 mM L-glutamine (Gibco), 10% (vol/vol) heat-inactivated fetal bovine serum (Omega Scientific) and 5% (vol/vol) NCTC 109 media (Gibco) (complete RPMI; non-activated) or complete RPMI-1640 medium containing 1 μg/ml anti-CD40 antibody, 25 ng/ml IL-4 and 1 ng/ml transforming growth factor beta 1 (TGF-beta1) (activated). Cultures were supplemented with 0, 50, 100, or 150 micromolar DIDS, and total cell counts were determined by manual cytometry after 0, 1, 2, 3, 4, or 6 days in culture.

Rad51 = target: T1, Rad51 (Homo sapiens, UniProt Q06609); details: cited from earlier work
T1 sequence (Q06609 1-339): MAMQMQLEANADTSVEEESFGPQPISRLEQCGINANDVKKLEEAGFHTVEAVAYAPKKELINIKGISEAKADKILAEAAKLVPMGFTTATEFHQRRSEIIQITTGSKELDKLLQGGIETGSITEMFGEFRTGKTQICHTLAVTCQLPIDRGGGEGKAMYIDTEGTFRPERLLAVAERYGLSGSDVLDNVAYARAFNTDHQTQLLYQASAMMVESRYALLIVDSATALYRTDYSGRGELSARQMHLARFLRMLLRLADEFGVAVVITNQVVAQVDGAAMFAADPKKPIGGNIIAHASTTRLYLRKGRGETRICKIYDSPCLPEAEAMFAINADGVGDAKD

[3] = system: primary mouse splenic B-cells (B220+ IgM+); experiment: radiosensitization of primary mouse B-cells by DIDS (Trypan blue dye exclusion); type: cell-based; details: 2.5 Gy gamma irradiation combined with DIDS, starting at 50 micromolar, 24 hours after irradiation
Description: Primary mouse splenic B-cells were isolated from normal, wild-type C57BL/6J mice as described in Example 1 and sorted with magnetic beads (Miltenyi) to enrich B220+ IgM+ B-cells. Purified B-cells were cultured in complete RPMI-1640 medium with 10% FBS with 0, 50, 100, or 150 micromolar DIDS. Cells were then subjected to either 0 (FIG. 14, filled circles) or 2.5 Gy (=250 rads; FIG. 14, open circles) of gamma irradiation in a Cs137 irradiator. Cell viability was subsequently scored for each condition and plotted relative to the no DIDS condition by manual cytometry using a hemacytometer and Trypan blue dye exclusion 24 hours after irradiation. The fraction of viable cells is reported normalized to the corresponding 0 μM DIDS condition. Error bars represent the standard error of the mean (S.E.M) from three independent experiments.

[4] = system: cells isolated from the spleens of wild type or AID knockout (−/−) mice; experiment: splenocyte viability, Guava EasyCyte Flow Cytometer Assay; type: cell-based, mouse; details: 150 μM DIDS, stimulated with anti-CD40 antibodies and IL-4
Description: Cells isolated from the spleens of wild-type (WT) or AICDA knock-out (−/−) mice were stimulated with anti-CD40 antibodies and IL-4 on day 0 and day 2. DIDS was added on day 0 and day 2 at concentrations of 0 or 150 μM. WT cells stimulated with anti-CD40 antibodies plus IL-4 and treated with DIDS are shown as filled boxes, AICDA−/− cells stimulated with anti-CD40 antibodies plus IL-4 and treated with DIDS as circle; WT cells stimulated with anti-CD40 antibodies plus IL-4 are shown as open diamonds; and AICDA−/− cells stimulated with anti-CD40 plus IL-4 antibodies as open triangles. The total number of viable cells was determined every other day. Days are shown on the x-axis and the fraction of viable cells is shown on the y-axis.
Cells were isolated from the spleens of wild type or AID knockout (−/−) mice, cultured and stimulated with anti-CD40 antibodies and IL-4 on day 0 and day 2. DIDS was added on day 0 and day 2 at concentrations of 0 or 150 μM. The total number of viable cells was determined every other day using Guava EasyCyte Flow Cytometer Assay.

[5] = system: RAD51 foci in primary mouse B-cells; experiment: RAD51 focus formation after ionizing radiation (immunofluorescence); type: cell-based
Description: Primary mouse B-cells were isolated from spleen of wild type C57BL/6J mice by magnetic bead based sorting (Miltenyi) to purify B220+ IgM+ B-cells. B-cells were then […], exposed to 0 or 2.5 Gy ionizing radiation in a Cs137 irradiator, and then stained by immunofluorescence for foci of the homologous recombination factor RAD51. The fraction of cells in each culture showing formation of RAD51 foci within the nucleus is reported. Irradiated cells not cultured with DIDS (0 μM) show efficient focus formation. […] Error bars show the standard error of the mean (S.E.M) from three independent experiments.

[6] = system: AID-expressing (AID+) primary human CLL cells; experiment: survival of primary human CLL cells cultured with DIDS (manual cytometry); type: cell-based
Description: AID-expressing (AID+) or AID-negative (AID−) primary human CLL cells were cultured as described in Example 4. […] […] The cell survival was scored by manual cytometry for viable cells after 2, 4, or 8 days of exposure.
as §1

## O=S(=O)([O-])c1cc(N=C=S)ccc1/C=C/c1ccc(N=C=S)cc1S(=O)(=O)[O-].[Na+].[Na+] [DIDS, 4,4′diisothiocyanostilbene-2,2′-disulfonic acid]
[1]
  cell survival (viable cells): indistinguishable
[2]; activated cells (anti-CD40, IL-4, TGF-beta1), 150 micromolar DIDS
  total cell number: strong decrease of total cell number
[2]; non-activated cells, 0-150 micromolar DIDS
  total cell number: no difference in cell viability or cell proliferation
Rad51
  effect on Rad51 complexes and heteroduplex formation: disrupts Rad51 complexes and inhibits heteroduplex formation
[3]
  fraction of viable cells: reduces viability significantly
[4]
  total number of viable cells: lower viability
[5]; 150 μM DIDS, 2.5 Gy ionizing radiation
  fraction of cells with RAD51 foci: completely inhibits radiation-induced RAD51 focus formation
[5]; 150 µM DIDS, irradiated cells (legend of FIG. 22)
  fraction of cells with RAD51 foci: completely inhibits radiation-induced RAD51 focus formation
[6]; 10 μM DIDS
  cell viability: significant effects on cell viability
[6]; 30 micromolar DIDS, 2, 4 or 8 days
  cell survival (viable cells): reduced cell viability
[6]; 30 micromolar DIDS, eight AID+ and eight AID− CLL samples, 2, 4, 6 or 8 days
  cell viability, AID-positive versus AID-negative: more strongly reduces cell viability in AID-positive than in AID-negative primary human CLL cells
